# In paper PMC9570594, “Development of Novel Pyridine-Thiazole Hybrid Molecules as Potential Anticancer Agents” (Molecules, 2022):
# Like-named read-outs stand apart in the source and are kept apart here.
# Experiments:
# A549 (lung) = test: MTT assay of cell viability; conditions: Homo sapiens, A549, 72 h
# SK-OV-3 (ovarian) = test: MTT assay of cell viability; conditions: Homo sapiens, SK-OV-3, 72 h
# MCF-7 (breast) = test: MTT assay of cell viability
# HCT-116 (colon) = test: MTT assay of cell viability
# [1] = test system: human epidermal keratinocytes of HaCaT line; test: MTT assay of cell viability; conditions: 72 h
# [2] = test system: panel of cancer cell lines; test: MTT assay, summary over the tumor cell lines; conditions: 72 h; for IC50: Homo sapiens, read-out: IC50 toward tumor cells (depending on tumor cell line)
# KB3-1 (cervix) = test: MTT assay of cell viability
# [3] = test system: HCT-116 p53 (−/−) colon cancer cells; test: MTT assay of cell viability; conditions: Homo sapiens, HCT-116, 72 h
# Text: The cell lines used in our work were kindly provided by a Collection at the Institute of Molecular Biology and Genetics, National Academy of Sciences of Ukraine (Kyiv, Ukraine).
# Jurkat (leukemia) = test: MTT assay of cell viability; conditions: Homo sapiens, 72 h
# [4] = test system: murine macrophages of J774.2 line; test: MTT assay of cell viability; conditions: Mus musculus, J774.2, 72 h
# KB3-1 cells = test: Fluorescent microscopy of morphological changes (Hoechst 33342/PI); type: cell-based, human; conditions: 48 h
# Procedure: In addition, we observed multinucleated giant cells. […] The condensed chromatin, a characteristic feature of apoptosis, and dead cells were observed under the action of all studied compounds.
# KB3-1 cells were seeded in the 12-well plates (CytoONE, STARLAB International GmbH, Hamburg, Germany) on glass microscopic slides and incubated overnight. Studied compounds were added to cells in the following concentrations: the compounds 3, 4 and cisplatin—5 µM/mL, doxorubicin—1 µM/mL. Cells were incubated for the next 48 h. Chromatin material of living and apoptotic cells was stained with the DNA-specific fluorescent dye Hoechst 33342 (Sigma-Aldrich, Burlington, MA, USA) and the DNA/RNA-specific fluorescent dye Propidium iodide (PI, Sigma, Burlington, MA, USA). Fluorochromes were added to cultured cells at final concentrations 0.2–0.5 μg/mL for Hoechst 33342 and 0.1 μg/mL—for PI. Images were made with a fluorescent Zeiss microscope (Carl Zeiss, Oberkochen, Germany). Magnification ×400. Microphotographs were additionally analyzed using ImagePro7N software.
# MCF-7 cells [5] = test: PARP-1 inhibition in vitro: MTT after Fluzoparib pretreatment; type: cell-based, human; conditions: for IC50: Homo sapiens, MCF7
# Procedure: Taking into account the above data, PARP1 inhibition in vitro was investigated using pretreatment of the MCF-7 cells with the Fluzoparib, a potent PARP1 inhibitor in the non-toxic concentrations of 5, 10, and 15 µM. It had no significant growth inhibitory effect in such doses, and a reduction of cell viability by only 10–12% was observed compared to control (non-treated) cells. […] The preincubation step was used to bind PARP1 molecules, which were the potential targets of the studied compounds and to test if it would affect the activity of 3 and 4. […] The preincubation of cells with the Fluzoparib decreased their sensitivity to the compound 3 treatment in a less pronounced manner, compared with the effect of the compound 4. […] Changes in structure of the started compound 3 may cause an enhancement of the ability of molecule 4 to inhibit the activity of PARP1.
# To determine PARP inactivation, the MCF-7 cells were pretreated for 2 h in the non-toxic concentrations of 5, 10, 15 µM of the Fluzoparib (Med Chem Express, Monmouth Junction, NJ, USA), a potent PARP1 inhibitor used in the chemotherapy. Then, the medium was removed and increasing doses of the compounds 3 and 4 were added and cells were incubated for the next 72 h. The IC50 values of compounds were determined by the MTT assay, as described.
# [6] = test system: HL-60 cells of the acute human promyelocytic leukemia; test: MTT assay of cell viability
# [7] = test system: pseudo-normal cell lines (HEK293, HaCaT); test: MTT assay, summary over pseudo-normal cell lines; conditions: Homo sapiens, 72 h, read-out: IC50 towards pseudo-normal cell lines
# [8] = test system: human embryonic kidney HEK293 cells; test: MTT assay of cell viability; conditions: HEK293, 72 h
# [9] = test system: BALB-3T3 (normal mouse fibroblasts); test: MTT assay of cell viability; conditions: BALB/3T3, 72 h
# [10] = test system: MCF-7 breast cancer cells; test: Mitochondrial membrane potential, JC-1 (flow cytometry); type: cell-based, human; conditions: MCF-7, 5 µM, 24 h, control 5.1 ± 0.7%
# Procedure: A decrease in the mitochondrial membrane potential (MMP, ΔΨm) is one of the earliest changes observed at apoptosis. […] The MCF-7 cells had depolarized mitochondria, reaching 25.3 ± 1.5% and 24.7 ± 0.4% of the cell population treated with the compound 4 and 7, respectively. In the control, there were only 5.1 ± 0.7% cells with a decreased ΔΨm.
# Disruption of the MMP was assessed using the lipophilic cationic probe 5,5,6,6-tetrachloro-1,1,3,3-tetraethylbenzimidazolcarbocyanine iodide (JC-1 MitoScreen kit; BD Biosciences San Diego, CA, USA), as described previously. The entire assay was performed according to the manufacturer’s instructions provided with the purchased kit. […] Briefly, unfixed MCF-7 cells were washed and resuspended in the PBS supplemented with the JC-1 dye. Then, cells were incubated for 15 min at room temperature (RT) in the dark, washed, and resuspended in the PBS for the immediate BD FACSCanto II flow cytometry analysis.
# [11] = test system: MCF-7 breast cancer cells; test: Annexin V-FITC/PI binding assay (flow cytometry); conditions: MCF-7, 5 µM, 24 h; control 4.4 ± 0.6%
# Procedure: Annexin V-FITC and Propidium Iodide were used for apoptosis measurement.
# Apoptosis was determined, as described [42], using Annexin V-FITC binding by means of the FITC Annexin V Apoptosis Detection Kit II(BD Biosciences, San Diego, CA, USA) according to the manufacturer’s instruction. Cells (10,000 cell measured) were analyzed in a BD FACSCanto II flow cytometer (BD Biosciences, San Diego, CA, USA). Annexin V binds with high affinity to phosphatidylserine, and thus, can be used to identify cells in all stages of the programmed cell death. Propidium iodide (PI) exclusively stains cells with a disrupted cell membrane and can be used to identify late apoptotic and dead cells. Cells cultured in a drug-free medium were used as controls. […] The contents of the test tubes were gently vortexed and incubated for 15 min at room temperature, protected from light. After the required time, the contents of the test tubes were made up to 500 µL with the Binding Buffer and immediately analyzed in a flow cytometer. The ratio of the apoptotic cells (early and late) was measured as: a percentage of cells from the upper right square (color red) to percentage of cells from the lower right square (color blue). Analysis was performed using the BD FACSCanto II flow cytometer, and the results were analyzed with FACSDiva software (both from BD Biosciences Systems, San Jose, CA, USA). […]
# CCRF-CEM (Leukemia) = test: NCI one-dose SRB assay; type: cell-based, human; conditions: 10 μM, 48 h
# SR (Leukemia) = test: NCI one-dose SRB assay; conditions: 10 μM, 48 h
# Procedure: (§1) Primary anticancer assays (Table 3) on a panel of 60 cancer cell lines at one dose-assay (10^−5 M) were performed according to the NCI protocol, as described elsewhere [31, 32, 33, 34, 35].
# (§2) A primary anticancer assay was performed on a panel of approximately sixty human tumor cell lines derived from nine neoplastic diseases, in accordance with the protocol of the Drug Evaluation Branch, National Cancer Institute, Bethesda [31, 32, 33, 34, 35]. Tested compounds were added to the culture at a single concentration (10^−5 M) and the cultures were incubated for 48 h. End point determinations were made with a protein binding dye, Sulphorhodamine B (SRB). […] The percentage growth was evaluated spectrophotometrically versus controls not treated with test agents.
# HL-60(TB) (Leukemia) = test: NCI one-dose SRB assay; type: cell-based, human; conditions: 10 μM, 48 h
# MDA-MB-435 (Melanoma) = test: NCI one-dose SRB assay; type: cell-based, human; conditions: 10 μM, 48 h
# [12] = test system: panel of 60 cancer cell lines; test: NCI DTP one-dose primary anticancer assay (10^-5 M, SRB); conditions: 10 μM; for Range of Growth, %: 48 h, 60 cell lines; for Positive Cytostatic Effect: number of cell lines with percent growth from 0 to 50 / total number of cell lines; for Positive Cytotoxic Effect: number of cell lines with percent growth of <0 / total number of cell lines
# Procedure: as §1, §2
# K-562 (Leukemia) = test: NCI one-dose SRB assay; conditions: 10 μM, 48 h
# Procedure: as §1, §2
# [13] = test system: NCI-H522 (Non-Small Cell Lung Cancer); test: NCI one-dose SRB assay; conditions: 10 μM, 48 h
# Procedure: as §1, §2
# [14] = test system: MDA-MB-468 (Brest Cancer); test: NCI one-dose SRB assay; type: cell-based, human; conditions: 10 μM, 48 h
# T-47D (Brest Cancer) = test: NCI one-dose SRB assay; conditions: 10 μM, 48 h
# Procedure: (§3) Tested compounds were added to the culture at a single concentration (10^−5 M) and the cultures were incubated for 48 h. End point determinations were made with a protein binding dye, Sulphorhodamine B (SRB). […] The percentage growth was evaluated spectrophotometrically versus controls not treated with test agents.
# SK Mel-5 (Melanoma) = test: NCI one-dose SRB assay; conditions: 10 μM, 48 h
# Procedure: as §3
# MCF-7 cells [15] = test: Clonogenic assay; type: cell-based, human; conditions: MCF-7, positive control, concentration not given, 10 days
# Procedure: This assay essentially tests every cell in the population for its ability to undergo “unlimited” division. […] At 1 µM concentration, it reduced the ability of the MCF-7 single cell to grow into a colony to 36%. […] With a concentration equivalent to 10 µM of the compound 4, the DMSO increased the cell’s ability to grow in colony.
# MCF-7 cells were seeded in triplicate in 6-well plates (CytoONE, STARLAB International GmbH, Germany) at a density of 500 cells per well. After 24 h incubation, the compound 4 was added in 1 and 10 μM concentrations and cells were treated for 10 days. Colonies containing ≥ 50 cells were fixed with 50% (v/v) methanol in the PBS and stained with crystal violet (Sigma-Aldrich, Burlington, MA, USA). Stained colonies were counted and expressed as a fraction of the untreated control.
# [16] = Homo sapiens, MCF7, 72 h, MCF-7, 72 h of incubation, M ± SD
# [17] = Homo sapiens, HCT-116, 72 h, HCT-116, 72 h of incubation, M ± SD
# [18] = Homo sapiens, KB 3-1, 72 h, KB3-1, 72 h of incubation, M ± SD
# [19] = HL-60, 72 h of incubation, M ± SD
# [20] = MCF-7, 72 h of incubation, M ± SD
# [21] = HCT-116, 72 h of incubation, M ± SD
SMILES,IC50 (A549 (lung)) [µM],IC50 (SK-OV-3 (ovarian)) [µM],IC50 (MCF-7 (breast); [16]) [µM],IC50 (HCT-116 (colon); [17]) [µM],IC50 [1] [µM],IC50 (KB3-1 (cervix); [18]) [µM],IC50 [3] [µM],IC50 (Jurkat (leukemia)) [µM],IC50 [4] [µM],IC50 [8] [µM],IC50 [9] [µM],also measured
"CC(=O)c1sc(Nc2ccccn2)nc1C [Compound 2, 1-[4-Methyl-2-(2-pyridylamino)thiazol-5-yl]ethanone]",> 50,> 50,> 50,> 50,> 50,38 ± 1.9,> 50,> 50,> 50,,,IC50 [2]: > 50 µM
"N.N.[Cl][Pt][Cl] [cisplatin, reference compound]",,,,,,,,,,,,"morphological changes (KB3-1 cells; KB3-1, 5 µM): significantly less DNA damage"
"Cc1nc(Nc2ccccn2)sc1C(=O)/C=C/c1ccccc1F [Compound 3, (E)-3-(2-Fluorophenyl)-1-[4-methyl-2-(2-pyridylamino)-thiazol-5-yl]-2-propen-1-one]",4.56 ± 0.22,> 50,,,> 50,7.42 ± 0.22,2.81 ± 0.16,5.2 ± 0.1,> 50,> 50,7.18 ± 0.21,"IC50 (MCF-7 cells [5]; MCF-7, compound alone (no preincubation), 72 h MTT, read-out: IC50): 3.9 µM; IC50 [6, 19]: 0.57 ± 0.35 µM; morphological changes (KB3-1 cells; KB3-1, 5 µM): significantly less DNA damage; IC50 (MCF-7 (breast); [20]): 1.86 ± 0.9 µM; IC50 (HCT-116 (colon); [21]): 2.9 ± 1.03 µM; IC50 [7]: > 50 µM; IC50 [2]: 0.57 to 7.8 µM"
"CS(=O)(=O)O.Cc1nc(Nc2ccccn2)sc1C(=O)/C=C/c1ccccc1F [Compound 7, (E)-3-(2-Fluorophenyl)-1-[4-methyl-2-(pyridin-1-ium-2-ylamino)thiazol-5-yl]-2-propen-1-one Methanesulfonate]",,,,,,,,,,,,"IC50 [6, 19]: > 10 µM; IC50 (MCF-7 (breast); [20]): 4.3 ± 0.98 µM; IC50 (HCT-116 (colon); [21]): 7.27 ± 0.27 µM; IC50 toward tumor cells (depending on tumor cell line) ([2]; summary over tumor cell lines, MTT): acted more weakly compared with 3 and 4; cells with depolarized mitochondria (decreased ΔΨm) [10]: 24.7 ± 0.4%; IC50 (KB3-1 (cervix); KB3-1, 72 h of incubation, M ± SD): 3.96 ± 1.23 µM; apoptotic cells (sum of early and late apoptotic cells) [11]: 31.0 ± 1.9%"
"Cc1nc(Nc2ccccn2)sc1C1=NNC(c2ccccc2F)C1 (stereo not drawn) [Compound 5, {5-[5-(2-Fluorophenyl)-4,5-dihydro-1H-pyrazol-3-yl]-4-methylthiazol-2-yl}-(pyridin-2-yl)-amine]",33.1 ± 1.32,> 50,> 50,> 50,> 50,13.1 ± 0.52,34.5 ± 1.02,> 50,> 50,45.4 ± 2.26,34.2 ± 1.7,"Growth % (CCRF-CEM (Leukemia)): 19.12%; Growth % (SR (Leukemia)): 12.44%; Growth % (HL-60(TB) (Leukemia)): 4.96%; Growth % (MDA-MB-435 (Melanoma)): −17.91%; Range of Growth, % [12]: −18.90–118.83%; Positive Cytostatic Effect [12]: 25/60; Positive Cytotoxic Effect [12]: 3/60; Growth % (K-562 (Leukemia)): 15.13%; Growth % [13]: −18.90%; Growth % [14]: −13.74%"
"CC(=O)N1N=C(c2sc(Nc3ccccn3)nc2C)CC1c1ccccc1F (stereo not drawn) [Compound 6, 1-{5-(2-Fluorophenyl)-3-[4-methyl-2-(2-pyridylamino)-thiazol-5-yl]-4,5-dihydropyrazol-1-yl}-ethanone]",63.4 ± 3.81,39.6 ± 2.37,45.4 ± 2.2,> 50,> 50,24.9 ± 0.74,29.1 ± 1.45,> 100,> 50,,,"Growth % (T-47D (Brest Cancer)): 14.27%; Growth % (SR (Leukemia)): 12.53%; Growth % (SK Mel-5 (Melanoma)): 17.75%; Range of Growth, % [12]: 12.53–95.32%; Positive Cytostatic Effect [12]: 32/59; Positive Cytotoxic Effect [12]: 0/59; Growth % (K-562 (Leukemia)): 15.62%"
"O=C(c1cc(Cc2n[nH]c(=O)c3ccccc23)ccc1F)N1CCn2nc(C(F)(F)F)nc2C1 [Fluzoparib, reference compound]",,,,,,,,,,,,"IC50 (MCF-7 cells [5]): 47 µM; reduction of cell viability (MCF-7 cells [5]; MCF-7, 5, 10 and 15 µM, compared to non-treated cells): 10–12%"
"COc1cccc2c1C(=O)c1c(O)c3c(c(O)c1C2=O)C[C@@](O)(C(=O)CO)C[C@@H]3O[C@H]1C[C@H](N)[C@H](O)[C@H](C)O1 [Doxorubicin, reference compound]",2 ± 0.35,3.2 ± 0.1,,,> 10,,1.19 ± 1.3,1.17 ± 0.12,1.74 ± 1.1,1.29 ± 0.87,3.18 ± 0.25,"IC50 ([6]; Homo sapiens, HL-60, 72 h): 0.38 ± 0.5 µM; morphological changes (KB3-1 cells; KB3-1, 1 µM): induced cell membrane damage and membrane blebbing to a greater extent; IC50 (MCF-7 (breast); Homo sapiens, MCF7, 72 h): 1.04 ± 0.8 µM; IC50 (HCT-116 (colon); Homo sapiens, HCT-116, 72 h): 0.9 ± 0.09 µM; ability of single cell to grow into a colony (compared with control) (MCF-7 cells [15]): 3%; IC50 (KB3-1 (cervix); Homo sapiens, KB 3-1, 72 h): 4 ± 1.3 µM"
